Key:
[1] = tested on: intracerebral hemorrhage (ICH) model of C57BL/6N mice; assay: Cerebral hematoma experiment: collagenase-induced ICH model, hematoma volume by ImageJ; assay type: in vivo; conditions: Day 1 after modeling; gavage 7 days before collagenase; FIG. 3
Text: This experiment aims to evaluate the effect of different compositions on the hematoma volume in the intracerebral hemorrhage (ICH) model of C57BL/6N mice. A total of 72 male C57BL/6N mice, aged 8-10 weeks, were randomly divided into 6 groups and treated with gavage for 7 days. Subsequently, except for the sham operation group (CON), the remaining groups were induced the ICH model by collagenase method. […]
On the 1st and 3rd day after modeling, 6 mice were randomly selected from each group for decapitation and brain sampling. The brain tissue was cut into slices on ice, and the hematoma volume was calculated using ImageJ software.

[2] = Bioavailability experiment: DHM concentration in plasma after gavage, LC-MS/MS; assay type: in vivo; conditions: male SD rats, DHM 100 mg/kg
Experimental: Experimental subject grouping: 24 male SD rats, weighing between 200-220 g, were randomly divided into four groups.
• Group A (control group): DHM was administered alone at a dose of 100 mg/kg. • Group B: DHM (100 mg/kg) was co-administered with L-theanine (10 mg/kg). • Group C: DHM (100 mg/kg) was co-administered with taurine (10 mg/kg). • Group D: DHM (100 mg/kg), L-theanine (10 mg/kg), and taurine (10 mg/kg) were co-administered.
The drug was mixed with 3 mL of 0.5% CMC-Na solution and administered by gavage.
At 0.1, 0.5, 1, 1.5, 2, 2.5, 3, 4, 6, 8, and 12 h after administration, 200 μL of blood samples were collected through the tail vein and placed in heparinized EP tubes.
The blood samples were centrifuged at 5000 rpm for 15 min at 4° C., and plasma was collected and stored at −20° C.
Before analysis, 30 μL of plasma sample was taken, 30 μL of internal standard (rutin) solution and 140 μL of 1% formic acid-acetonitrile solution were added, vortex oscillated for 1 min, centrifuged at 12000 rpm for 5 min, and 150 μL of supernatant was taken for LC-MS/MS analysis. Analysis purpose:
The concentration of DHM in plasma was determined at different time points to evaluate the effect of the composition on the bioavailability of DHM.

[3] = simulated gi fluid, 4 h, 1 mg/mL
Experimental: • Solutions A-D and A1-D1 were prepared according to the following components and concentrations, with a volume of 10 mL each. The mixed solution was placed in a water bath at 37° C., and the content of the remaining DHM was determined by HPLC at different time intervals. • Solution A: SIF+DHM (1 mg/mL); • Solution B: SIF+DHM (1 mg/mL)+taurine (0.3 mg/mL) • Solution C: SIF+DHM (1 mg/mL)+L-theanine (0.4 mg/mL); • Solution D: SIF+DHM (1 mg/mL)+taurine (0.1 mg/mL)+L-theanine (0.1 mg/mL) • Solution A1: SIF+DHM (1 mg/mL)+Fe^3+ (50 μmol/L); • Solution B1: SIF+DHM (1 mg/mL)+taurine (0.3 mg/mL)+Fe^3+ (50 μmol/L); • Solution C1: SIF+DHM (1 mg/mL)+L-theanine (0.4 mg/mL)+Fe^3+ (50 μmol/L); • Solution D1: SIF+DHM (1 mg/mL)+taurine (0.1 mg/mL)+L-theanine (0.1 mg/mL)+Fe^3+ (50 μmol/L).

Row | CL [2] [L/h/kg] | AUC(0-inf) ([2]; rat, po) [µg·h/mL] | AUC(0-t) ([2]; rat, po) [µg·h/mL] | Cmax ([2]; rat, po) [µg/mL] | Tmax ([2]; rat, po) [h] | half-life ([2]; rat, po) [h] | remaining amount of DHM [3] | SMILES | hematoma volume compared with the MOD group [1]
1 |  |  |  |  |  |  |  | O=C1c2c(O)cc(O)cc2O[C@H](c2cc(O)c(O)c(O)c2)[C@H]1O [G1 group, dihydromyricetin] | decreased
2 | 517 ± 62.4 | 0.194 | 0.173 | 0.118 ± 0.0137 | 0.83 ± 1.12 | 1.91 ± 0.67 | below 50% | O=C1c2c(O)cc(O)cc2O[C@H](c2cc(O)c(O)c(O)c2)[C@H]1O [DHM, dihydromyricetin] | 

Reference: patent publication US20260174724A1, “COMPOSITION FOR PREVENTING AND/OR IMPROVING BRAIN DYSFUNCTION” (THE INSTITUTE OF BIOACTIVE PEPTIDES, priority 2024, published 2026)
